In patent EP4682145A1, “BENZOHETEROCYCLIC COMPOUND, AND PREPARATION METHOD THEREFOR AND USE THEREOF” (Cascade Pharmaceuticals, Inc., priority 2023, dated 2024):

Target: T1, human FFAR1 (GPR40) (Homo sapiens, UniProt O14842)
T1 construct: Flag; expressed in transfected cells; host or cells: HEK293T
Test: NFAT-RE-based reporter gene activity assay (Dual-Glo luciferase) for GPR40 agonistic activity in co-transfected HEK293T cells
Type: cell-based
Settings: 4-hour treatment; for Efficacy (%): class symbols
Method in brief: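 Agonism read as NFAT-RE-driven firefly luciferase over Renilla control (Dual-Glo) after 4 h compound exposure, top concentration 1 µM, 10 half-log steps.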

T1 sequence (O14842 whole entry): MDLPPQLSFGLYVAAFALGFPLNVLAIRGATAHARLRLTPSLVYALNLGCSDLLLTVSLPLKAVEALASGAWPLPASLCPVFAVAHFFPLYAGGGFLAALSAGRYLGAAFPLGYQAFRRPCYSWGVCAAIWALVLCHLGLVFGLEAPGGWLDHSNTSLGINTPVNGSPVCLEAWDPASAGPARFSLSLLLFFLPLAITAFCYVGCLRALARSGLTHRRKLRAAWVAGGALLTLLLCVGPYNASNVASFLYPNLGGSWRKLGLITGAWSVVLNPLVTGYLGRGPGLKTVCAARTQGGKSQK

Structure (SMILES)	EC50 [nM]	Efficacy (%)
COc1cccc(N2CCC(c3oc4cc([C@@H](CC(=O)O)C5CC5)ccc4c3C(=O)Nc3ccccc3-c3ccccc3)CC2)c1 [Compound 241]	100 to 500	†† (150 ≥ Efficacy (%) > 100)
COc1cccc(N2CCC(c3oc4cc([C@@H](CC(=O)O)C5CC5)ccc4c3C(=O)Nc3cccc(C)c3)CC2)c1 [Compound 242]	100 to 500	†† (150 ≥ Efficacy (%) > 100)
CCc1cccc(NC(=O)c2c(C3CCN(c4cccc(OC)c4)CC3)oc3cc(C(CC(=O)O)C4CC4)ccc23)c1 (stereo not shown) [Compound 243]	> 500	†† (150 ≥ Efficacy (%) > 100)
COc1cccc(NC(=O)c2c(C3CCN(c4cccc(OC)c4)CC3)oc3cc(C(CC(=O)O)C4CC4)ccc23)c1 (stereo not shown) [Compound 245]	100 to 500	†† (150 ≥ Efficacy (%) > 100)
COc1cccc(N2CCC(c3oc4cc(C(CC(=O)O)C5CC5)ccc4c3C(=O)Nc3cccc(N(C)C)c3)CC2)c1 (stereo not shown) [Compound 246]	100 to 500	†† (150 ≥ Efficacy (%) > 100)
COc1cccc(N2CCC(c3oc4cc(C(CC(=O)O)C5CC5)ccc4c3C(=O)Nc3cccc(Br)c3)CC2)c1 (stereo not shown) [Compound 247]	100 to 500	††† (Efficacy (%) > 150)
COc1cccc(N2CCC(c3oc4cc(C(CC(=O)O)C5CC5)ccc4c3C(=O)Nc3cccc(Cl)c3)CC2)c1 (stereo not shown) [Compound 248]	100 to 500	†† (150 ≥ Efficacy (%) > 100)
COc1cccc(N2CCC(c3oc4cc(C(CC(=O)O)C5CC5)ccc4c3C(=O)Nc3cccc(C#N)c3)CC2)c1 (stereo not shown) [Compound 249]	100 to 500	†† (150 ≥ Efficacy (%) > 100)
COc1cccc(N2CCC(c3oc4cc(C(CC(=O)O)C5CC5)ccc4c3C(=O)Nc3cccc(C)c3F)CC2)c1 (stereo not shown) [Compound 250]	100 to 500	†† (150 ≥ Efficacy (%) > 100)
COc1cccc(N2CCC(c3oc4cc(C(CC(=O)O)C5CC5)ccc4c3C(=O)Nc3ccc(C)cc3F)CC2)c1 (stereo not shown) [Compound 251]	100 to 500	†† (150 ≥ Efficacy (%) > 100)
COc1cccc(N2CCC(c3oc4cc(C(CC(=O)O)C5CC5)ccc4c3C(=O)Nc3c(C)cccc3F)CC2)c1 (stereo not shown) [Compound 252]	100 to 500	†† (150 ≥ Efficacy (%) > 100)
COc1cccc(N2CCC(c3oc4cc([C@@H](CC(=O)O)C5CC5)ccc4c3C(=O)Nc3cc(C)ccc3F)CC2)c1 [Compound 253]	≤ 10	††† (Efficacy (%) > 150)
COc1cccc(N2CCC(c3oc4cc(C(CC(=O)O)C5CC5)ccc4c3C(=O)Nc3cccc(F)c3F)CC2)c1 (stereo not shown) [Compound 254]	100 to 500	††† (Efficacy (%) > 150)
COc1cccc(N2CCC(c3oc4cc(C(CC(=O)O)C5CC5)ccc4c3C(=O)Nc3ccc(F)cc3F)CC2)c1 (stereo not shown) [Compound 255]	100 to 500	†† (150 ≥ Efficacy (%) > 100)
COc1cccc(N2CCC(c3oc4cc(C(CC(=O)O)C5CC5)ccc4c3C(=O)Nc3c(F)cccc3F)CC2)c1 (stereo not shown) [Compound 256]	100 to 500	††† (Efficacy (%) > 150)
COc1cccc(N2CCC(c3oc4cc([C@@H](CC(=O)O)C5CC5)ccc4c3C(=O)Nc3cc(F)ccc3F)CC2)c1 [Compound 257]	≤ 10	††† (Efficacy (%) > 150)
COc1cccc(N2CCC(c3oc4cc(C(CC(=O)O)C5CC5)ccc4c3C(=O)Nc3cccc(OC)c3F)CC2)c1 (stereo not shown) [Compound 258]	100 to 500	††† (Efficacy (%) > 150)
COc1cccc(N2CCC(c3oc4cc(C(CC(=O)O)C5CC5)ccc4c3C(=O)Nc3c(F)cccc3OC)CC2)c1 (stereo not shown) [Compound 259]	> 500	†† (150 ≥ Efficacy (%) > 100)

Structure (SMILES)	EC50 [nM]	Efficacy (%)
COc1cccc(N2CCC(c3oc4cc([C@@H](CC(=O)O)C5CC5)ccc4c3C(=O)Nc3cc(OC)ccc3F)CC2)c1 [Compound 260]	10 to 100	††† (Efficacy (%) > 150)
COc1cccc(N2CCC(c3oc4cc([C@@H](CC(=O)O)C5CC5)ccc4c3C(=O)Nc3cc(C(F)(F)F)ccc3F)CC2)c1 [Compound 261]	≤ 10	††† (Efficacy (%) > 150)
COc1cccc(N2CCC(c3oc4cc([C@@H](CC(=O)O)C5CC5)ccc4c3C(=O)Nc3cc(OC(F)(F)F)ccc3F)CC2)c1 [Compound 262]	< 10	†† (150 ≥ Efficacy (%) > 100)
COc1cccc(N2CCC(c3oc4cc(C(CC(=O)O)C5CC5)ccc4c3C(=O)Nc3c(F)cccc3C(F)(F)F)CC2)c1 (stereo not shown) [Compound 263]	100 to 500	†† (150 ≥ Efficacy (%) > 100)
COc1cccc(N2CCC(c3oc4cc(C(CC(=O)O)C5CC5)ccc4c3C(=O)Nc3c(F)cccc3Br)CC2)c1 (stereo not shown) [Compound 264]	100 to 500	†† (150 ≥ Efficacy (%) > 100)
COc1cccc(N2CCC(c3oc4cc([C@@H](CC(=O)O)C5CC5)ccc4c3C(=O)Nc3cc(C)ccc3Cl)CC2)c1 [Compound 265]	≤ 10	††† (Efficacy (%) > 150)
COc1cccc(N2CCC(c3oc4cc([C@@H](CC(=O)O)C5CC5)ccc4c3C(=O)Nc3cc(F)ccc3Cl)CC2)c1 [Compound 266]	< 10	††††
COc1cccc(N2CCC(c3oc4cc([C@@H](CC(=O)O)C5CC5)ccc4c3C(=O)Nc3cc(Cl)ccc3Cl)CC2)c1 [Compound 267]	≤ 10	††† (Efficacy (%) > 150)
COc1cccc(N2CCC(c3oc4cc([C@@H](CC(=O)O)C5CC5)ccc4c3C(=O)Nc3cc(OC)ccc3Cl)CC2)c1 [Compound 268]	≤ 10	†† (150 ≥ Efficacy (%) > 100)
COc1cccc(N2CCC(c3oc4cc([C@@H](CC(=O)O)C5CC5)ccc4c3C(=O)Nc3cc(C)ccc3C)CC2)c1 [Compound 269]	10 to 100	††† (Efficacy (%) > 150)
COc1cccc(N2CCC(c3oc4cc([C@@H](CC(=O)O)C5CC5)ccc4c3C(=O)Nc3cc(Cl)ccc3F)CC2)c1 [Compound 270]	10 to 100	††††
COc1cccc(N2CCC(c3oc4cc([C@@H](CC(=O)O)C5CC5)ccc4c3C(=O)Nc3cc(F)ccc3Br)CC2)c1 [Compound 271]	≤ 10	††† (Efficacy (%) > 150)
COc1cccc(N2CCC(c3oc4cc([C@@H](CC(=O)O)C5CC5)ccc4c3C(=O)Nc3cc(C)ccc3OC)CC2)c1 [Compound 272]	10 to 100	††† (Efficacy (%) > 150)
COc1cccc(N2CCC(c3oc4cc([C@@H](CC(=O)O)C5CC5)ccc4c3C(=O)Nc3cc(C)ccc3Br)CC2)c1 [Compound 273]	≤ 10	†† (150 ≥ Efficacy (%) > 100)
COc1cccc(N2CCC(c3oc4cc([C@@H](CC(=O)O)C5CC5)ccc4c3C(=O)N(C)c3cc([N+](=O)[O-])ccc3Cl)CC2)c1 [Compound 274]	100 to 500	†† (150 ≥ Efficacy (%) > 100)
COc1cccc(N2CCC(c3oc4cc([C@@H](CC(=O)O)C5CC5)ccc4c3C(=O)Nc3cc(C(F)(F)F)ccc3Cl)CC2)c1 [Compound 275]	10 to 100	††† (Efficacy (%) > 150)
COc1cccc(N2CCC(c3oc4cc([C@@H](CC(=O)O)C5CC5)ccc4c3C(=O)Nc3cc([N+](=O)[O-])ccc3Cl)CC2)c1 [Compound 276]	10 to 100	†† (150 ≥ Efficacy (%) > 100)
